Reference: patent publication US20100166726A1, “COMPOSITIONS FOR IMPROVING CELLULAR UPTAKE OF A CHEMOTHERAPEUTIC AGENT IN A CELL EXHIBITING MUCIN DEREGULATION” (NORTHEASTERN UNIVERSITY, priority 2007, published 2010)

Test system: Capan-1 cells
Assay: Cytotoxic activity of chemotherapeutic agents with or without benzyl-α-GalNAc pretreatment, sulforhodamine B assay
Format: cell-based, human
Details: benzyl-α-GalNAc 48 hr, then drug 24 hr
Experimental: Human pancreatic cancer cell morphology was visualized using light microscopy. Six hydrophilic chemotherapeutic agents namely cisplatin, gemcitabine, carboplatin, methotrexate, doxorubicin, vinblastine and six lipophilic agents namely lomustine, busulfan, camptothecin, etoposide, teniposide and paclitaxel with molecular weights ranging from approximately 200 to 900 were used. Two different concentrations of each drug type were evaluated in the presence and absence of heavily O-glycosylated chains with Benzyl-α-GalNAc as O-glycosylation inhibitor. Cell viability was determined using Sulforhodamine B assay. The percent change in cell viability was used to assess the overall benefit of reducing mucin in Capan-1 cells when different cytotoxic drugs are employed.
The growth inhibitory effect of the chemotherapeutic agent after 24 hr of exposure was determined by sulforhodamine B assay and percent of viable cells was calculated as follows: […]

SMILES | Percent increase in chemotherapeutic activity (chemotherapeutic benefit) when pretreated with benzyl-α-GalNAc [%]
CC[C@@]1(O)C(=O)OCc2c1cc1n(c2=O)Cc2cc3ccccc3nc2-1 [Camptothecin] | 34
N.N.O=C([O-])C1(C(=O)[O-])CCC1.[Pt+2] [Carboplatin] | 33
